Measurements: patent publication US20140228315A1, “BLOCKADE OF EOSINOPHIL PRODUCTION BY TOLL-LIKE RECEPTORS” (CHILDREN'S HOSPITAL MEDICAL CENTER, priority 2011, published 2014)

Tested on: developing eosinophils (eosinophil progenitors, EoPs) from LDBM cells
Experiment: Murine eosinophil liquid culture (LDBM cells, IL-5): eosinophil yield after TLR ligand or cytokine exposure
Assay type: cell-based, mouse
Settings: cytokines added with IL-5 from Day 8 for the final 6 days of culture
Experimental: The femurs and tibiae of mice were crushed in a sterile mortar and pestle containing 1×PBS with 2% FBS, and cells were collected by filtration through a 70-μm strainer. Red blood cells were lysed using RBC lysis buffer (Sigma, St. Louis, Mo.), and the remaining cells were subjected to centrifugation at 1700 rpm for 30 minutes on a Histopaque 1083 (Sigma) gradient. LDBM cells were aspirated from the interface, washed twice with 1× PBS and cultured at 0.8-1×10^6 cells per ml in 6-well plates or 24-well plates containing Complete Medium composed of Iscove's Modified Dulbecco's Medium (IMDM) with Glutamax (Gibco, Carlsbad, Calif.), 10% characterized FBS (HyClone, Hudson, N.H.), 2 mM L-glutamine (Gibco), 50 μM 2-ME (Sigma), and penicillin and streptomycin (Gibco) supplemented with 100 ng/mL stem cell factor (SCF; Peprotech, Rocky Hill, N.J.) and 100 ng/mL FLT3-ligand (FLT3L; Peprotech). On day 4, the medium in each non-centrifuged plate was replaced with fresh Complete Medium containing 10 ng/mL murine IL-5 (Peprotech). Medium with IL-5 was changed every 2 days thereafter. On Day 8, some cultures were treated with LPS from E. coli serotype O55:B5 (Sigma), ultrapure LPS from S. minnesota (InvivoGen, San Diego, Calif.), monophosphoryl lipid A from S. minnesota R595LPS (InvivoGen), synthetic lipid A from E. coli (InvivoGen), Pam2CSK4 (InvivoGen), Pam3CSK4 (InvivoGen), imiquimod (InvivoGen), CL264 (InvivoGen), or poly(I:C) (InvivoGen) at indicated doses in the presence of IL-5.
After TLR ligand exposure for 18-24 hours, the medium was changed to Complete Medium with IL-5 at 10 ng/ml for the remaining culture period. For neutralization experiments, monoclonal anti-mouse IFN-γ (clone 37895; R&D Systems, Minneapolis, Minn.) or rat IgG2a isotype antibody was added at 0.3 μg/ml to media during LPS exposure and to Complete Medium with IL-5 thereafter. For some experiments, cytokines (IL-6 at 0.1 ng/ml, IL-10 at 2 ng/ml, IFN-γ at 0.5 ng/ml, TNF-α at 0.5 ng/ml, or the combination of all four) were added on Day 8 to IL-5-containing Complete Medium. Cells were cultured in the presence of these individual cytokines or the cytokine combination for the remainder of the culture period.
Whole bone marrow or LDBM cells were washed twice in 1×PBS containing 1% FBS and 1 mM EDTA at a concentration of 4×10^6 cells/mL and blocked with 0.5 μg rat anti-mouse CD16/CD32 (BD Bioscience, San Diego, Calif.) for 5 minutes at 4° C. Cells were incubated with fluorescent-labeled antibodies for 30 minutes at 4° C. and then washed twice and resuspended in flow cytometry buffer. Antibodies used include rat anti-mouse CD34-FITC (BD Bioscience), rat anti-mouse TLR4-PE (Imgenex, San Diego, Calif.), rat anti-mouse Siglec-F-PE (BD Bioscience), and rat anti-mouse CCR3-FITC (R&D Systems). All flow cytometric data were acquired using a FACS Calibur or FACS Canto flow cytometer (BD Bioscience).
FIG. 3A. A schematic of LPS exposure for eosinophil progenitors is depicted. LDBM cells were stimulated with SCF and FLT3L for 4 days and subsequently cultured with IL-5 for 4 days to initiate eosinophil differentiation. On Day 8, cultured cells were stimulated with LPS and IL-5 for 18-24 hours, after which the medium was changed, and the cells were cultured for another 6 days with IL-5 alone.

| Molecule | number of mature eosinophils produced (eosinophil yield) |
| --- | --- |
| IFN-γ: cytokine added at 0.5 ng/ml to IL-5-containing medium | no significant effect |
| IL-6: cytokine added at 0.1 ng/ml to IL-5-containing medium | no significant effect |
| TNF-α | no significant effect |
| IL-10: cytokine added at 2 ng/ml to IL-5-containing medium (protein, UniProt P22301 19-178, looked up) Interleukin-10: SPGQGTQSENSCTHFPGNLPNMLRDLRDAFSRVKTFFQMKDQLDNLLLKESLLEDFKGYLGCQALSEMIQFYLEEVMPQAENQDPDIKAHVNSLGENLKTLRLRLRRCHRFLPCENKSKAVEQVKNAFNKLQEKGIYKAMSEFDIFINYIEAYMTMKIRN | no significant effect |

Same assay, conditions: wild-type cultures; TLR ligand exposure 18-24 hours on Day 8 in presence of IL-5, then IL-5 alone; yield at day 11-15

| Molecule | eosinophil yield (eosinophil production) |
| --- | --- |
| CCCCNc1nc(N)c2[nH]c(=O)n(Cc3ccc(C(=O)NCC(=O)O)cc3)c2n1 [CL264] | significant suppression of eosinophil yield |
| CC(C)Cn1cnc2c(N)nc3ccccc3c21 [imiquimod] | significant suppression of eosinophil yield |
| Pam2CSK4 | dose-dependent reduction in eosinophil yield |
| Pam3CSK4 | dose-dependent reduction in eosinophil yield |
| monophosphoryl lipid A [MPLA] | dose-dependent suppression of eosinophil production |
| poly(I:C) | no effect on eosinophil production |
| synthetic monophosphoryl lipid A [sMPLA] | significant suppression of eosinophil production at higher doses |
